Each block holds one compound with its values, some of them ahead of it. Calls of active or inactive are those of the source. No cut-off for these calls is given here.
Key:
[1] = Dose normalized AUC in mouse at 25 mg/kg, iv by HPLC-MS/MS analysis; assay type: ADME, organism-based; conditions: in vivo
[2] = Clearance in dog assessed as hepatic blood flow at 0.9 mg/kg, iv by HPLC-MS/MS analysis; assay type: ADME, organism-based, Canis lupus familiaris, Liver; conditions: in vivo
[3] = Dose normalized AUC in mouse at 20 mg/kg, iv by HPLC-MS/MS analysis; assay type: ADME, organism-based; conditions: in vivo
[4] = molecular target: Induced myeloid leukemia cell differentiation protein Mcl-1 (Homo sapiens) (UniProt Q07820); conditions: time 3.0 hrs
Sequence of Induced myeloid leukemia cell differentiation protein Mcl-1 (Homo sapiens) (Q07820 whole entry): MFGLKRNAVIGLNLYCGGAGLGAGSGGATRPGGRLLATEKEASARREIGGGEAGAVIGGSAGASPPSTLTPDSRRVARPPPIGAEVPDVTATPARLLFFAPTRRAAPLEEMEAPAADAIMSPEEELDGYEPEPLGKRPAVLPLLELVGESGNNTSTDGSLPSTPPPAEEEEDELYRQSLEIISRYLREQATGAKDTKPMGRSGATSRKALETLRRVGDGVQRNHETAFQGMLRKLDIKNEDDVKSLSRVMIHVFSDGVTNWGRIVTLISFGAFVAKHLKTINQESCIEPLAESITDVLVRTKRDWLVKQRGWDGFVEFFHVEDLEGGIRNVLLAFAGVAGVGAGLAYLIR

[5] = Clearance in dog assessed as hepatic blood flow at 0.25 mg/kg, iv by HPLC-MS/MS analysis; assay type: ADME, organism-based, Canis lupus familiaris, Liver; conditions: in vivo
K562 = assay: Growth inhibition of human K562 cells measured after 72 to 96 hrs by cell-titer glo assay; assay type: functional; conditions: time 72-96 hrs
NCI-H929 [6] = assay: Growth inhibition of human NCI-H929 cells measured after 72 to 96 hrs by cell-titer glo assay; assay type: functional; conditions: time 72-96 hrs
[7] = Clearance in dog assessed as hepatic blood flow at 0.5 mg/kg, iv by HPLC-MS/MS analysis; assay type: ADME, organism-based, Canis lupus familiaris, Liver; conditions: in vivo
NCI-H1048 [8] = assay: Antitumor activity against human NCI-H1048 cells xenografted in BomTac:NMRI-Foxn1nu mouse model assessed as tumor growth regression at 60 mg/kg, iv administered daily for 7 days and measured upto 16 days in presence of topotecan; assay type: functional, organism-based; conditions: time <= 16.0 day
[9] = Plasma protein binding (unknown origin); assay type: ADME, cell-free; conditions: read-out: PPB (converted)
Cytochrome P450 3A4 [10] = molecular target: T1, Cytochrome P450 3A4 (Homo sapiens, UniProt P08684); assay: Time dependent inhibition of CYP3A4 (unknown origin) relative to control; assay type: ADME
T1 sequence (P08684 whole entry): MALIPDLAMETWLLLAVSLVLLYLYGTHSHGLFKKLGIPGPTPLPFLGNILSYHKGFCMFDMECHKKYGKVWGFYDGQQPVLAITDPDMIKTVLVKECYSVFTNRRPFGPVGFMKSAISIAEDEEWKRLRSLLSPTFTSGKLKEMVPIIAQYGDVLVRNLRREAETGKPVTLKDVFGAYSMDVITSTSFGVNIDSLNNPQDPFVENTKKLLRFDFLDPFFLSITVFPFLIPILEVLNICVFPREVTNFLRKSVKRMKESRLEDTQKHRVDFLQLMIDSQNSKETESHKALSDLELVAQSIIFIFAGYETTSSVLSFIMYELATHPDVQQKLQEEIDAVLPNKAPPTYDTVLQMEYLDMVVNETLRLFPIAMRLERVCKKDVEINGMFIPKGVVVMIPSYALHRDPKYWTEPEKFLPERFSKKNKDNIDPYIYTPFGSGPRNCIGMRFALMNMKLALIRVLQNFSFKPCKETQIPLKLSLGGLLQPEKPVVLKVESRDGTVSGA

NCI-H929 [11] = assay: Antitumor activity against human NCI-H929 cells xenografted in CB17/Icr-Prkdc(scid)/IcrCrl mouse assessed as disruption of Mcl-1:BIM complex; assay type: functional, cell-based; conditions: time <= 48.0 hrs, TDE = time-dependent effect
[12] = AUC in CB17/Icr-Prkdc(scid)/IcrCrl mouse at 60 mg/kg, iv administered daily for 7 days and measured upto 21 days in presence of docetaxel; assay type: ADME, organism-based; conditions: in vivo, time < 21 day
NCI-H929 [13] = assay: Antitumor activity against human NCI-H929 cells xenografted in CB17/Icr-Prkdc(scid)/IcrCrl mouse model assessed as increase in […] activity measured upto 48 hrs by glo reagent based analysis; assay type: functional, cell-based
[14] = Toxicity in CB17/Icr-Prkdc(scid)/IcrCrl mouse assessed as reduction in tumor area at 60 mg/kg, iv measured after 21 days by H and E staining based analysis; assay type: organism-based; conditions: in vivo, 504 h, time 21 day
Cytochrome P450 2C8 = molecular target: T2, Cytochrome P450 2C8 (Homo sapiens, UniProt P10632); assay: Inhibition of CYP2C8 (unknown origin); assay type: ADME
T2 sequence (P10632 whole entry): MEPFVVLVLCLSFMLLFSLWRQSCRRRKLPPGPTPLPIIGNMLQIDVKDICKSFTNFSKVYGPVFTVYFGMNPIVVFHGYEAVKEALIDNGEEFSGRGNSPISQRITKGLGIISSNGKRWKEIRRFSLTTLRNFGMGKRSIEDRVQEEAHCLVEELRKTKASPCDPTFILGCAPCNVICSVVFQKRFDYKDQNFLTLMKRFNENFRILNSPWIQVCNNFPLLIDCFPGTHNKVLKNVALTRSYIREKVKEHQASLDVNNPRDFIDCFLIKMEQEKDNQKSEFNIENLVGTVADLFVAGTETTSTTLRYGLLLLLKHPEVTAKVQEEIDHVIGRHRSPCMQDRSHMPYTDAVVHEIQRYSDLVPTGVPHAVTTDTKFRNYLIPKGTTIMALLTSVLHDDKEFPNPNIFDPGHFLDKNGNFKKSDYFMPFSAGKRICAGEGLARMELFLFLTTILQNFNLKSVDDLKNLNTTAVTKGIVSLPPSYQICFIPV

[15] = Toxicity in CB17/Icr-Prkdc(scid)/IcrCrl mouse assessed as effect on body weight at 60 to 80 mg/kg, iv administered as single dose measured after 15 days; assay type: organism-based; conditions: in vivo, 360 h, dose 60-80 mg/kg, time 15 day
[16] = Toxicity in CB17/Icr-Prkdc(scid)/IcrCrl mouse assessed as reduction in tumor area at 60 mg/kg, iv measured after 21 days presence of docetaxel by Ki67 staining based analysis; assay type: organism-based; conditions: in vivo, 504 h, time 21 day
[17] = Toxicity in CB17/Icr-Prkdc(scid)/IcrCrl mouse assessed as reduction in tumor area at 60 mg/kg, iv measured after 21 days by Ki67 staining based analysis; assay type: organism-based; conditions: in vivo, 504 h, time 21 day
A-427 [18] = assay: Antiproliferative activity against human A-427 cells at upto 1000 nM measured after 72 to 96 hrs in presence of docetaxel by cell-titer glo assay; assay type: functional, cell-based; conditions: time 72-96 hrs
Cytochrome P450 3A4 [19] = molecular target: T1, Cytochrome P450 3A4; assay: Inhibition of CYP3A4 (unknown origin); assay type: ADME
[20] = Toxicity in CB17/Icr-Prkdc(scid)/IcrCrl mouse assessed as reduction in tumor area at 60 mg/kg, iv measured after 21 days in presence of docetaxel by H and E staining based analysis; assay type: organism-based; conditions: in vivo, 504 h, time 21 day
NCI-H1048 [21] = assay: Antitumor activity against human NCI-H1048 cells xenografted in BomTac:NMRI-Foxn1nu mouse model assessed as tumor growth inhibition at 60 mg/kg, iv administered daily for 7 days and measured upto 16 days in presence of topotecan relative to control; assay type: functional; conditions: NCI-H1048, 384 h, time <= 16 day, read-out: TGI
[22] = Dose normalized AUC in mouse at 5 mg/kg, iv by HPLC-MS/MS analysis; assay type: ADME, organism-based; conditions: in vivo
[23] = Toxicity in CB17/Icr-Prkdc(scid)/IcrCrl mouse assessed as reduction in tumor area at 10 mg/kg, iv measured after 21 days by H and E staining based analysis; assay type: organism-based; conditions: in vivo, 504 h, time 21 day
A-427 [24] = assay: Antitumor activity against human A-427 cells xenografted in CB17/Icr-Prkdc(scid)/IcrCrl mouse model assessed as tumor regression at 10 mg/kg, iv administered daily for 7 days and measured upto 21 days; assay type: functional, organism-based; conditions: time <= 21.0 day
[25] = AUC in CB17/Icr-Prkdc(scid)/IcrCrl mouse at 60 mg/kg, iv administered daily for 7 days and measured upto 21 days in presence of (R)-7-(7-Chloro-10-(3-(4-chloro-3,5-dimethylphenoxy)propyl)-4-methyl-1-oxo-6-(2,4,6-trimethylpyrimidin-5-yl)-3,4-dihydropyrazino[1,2-a]indol-2(1H)-yl)-4-methoxy-1-methyl-5-((tetrahydro-2H-pyran-4-yl)methoxy)-1H-indole-2-carboxylic Acid; assay type: ADME, organism-based; conditions: in vivo, time < 21 day
A-427 [26] = assay: Antitumor activity against human A-427 cells xenografted in CB17/Icr-Prkdc(scid)/IcrCrl mouse model assessed as tumor regression at 60 mg/kg, iv administered daily for 7 days and measured upto 21 days in presence of docetaxel; assay type: functional, organism-based; conditions: time <= 21.0 day
[27] = Toxicity in CB17/Icr-Prkdc(scid)/IcrCrl mouse assessed as reduction in tumor area at 10 mg/kg, iv measured after 21 days by Ki67 staining based analysis; assay type: organism-based; conditions: in vivo, 504 h, time 21 day

- AUC/dose [1]: 1480 nM·h/mg/kg
Compound: COc1c(OC[C@H]2CCCO2)cc(N2C[C@@H](C)n3c(c(CCCOc4cc(C)c(Cl)c(C)c4)c4ccc(Cl)c(-c5c(C)ncnc5C)c43)C2=O)c2c1cc(C(=O)O)n2C

- QH [2]: 29%
- AUC/dose [3]: 2190 nM·h/mg/kg
Compound: COc1c(OC[C@@H]2CCCO2)cc(N2C[C@@H](C)n3c(c(CCCOc4cc(C)c(Cl)c(C)c4)c4ccc(Cl)c(-c5c(C)nc(C)nc5C)c43)C2=O)c2c1cc(C(=O)O)n2C

- Activity [4]: inactive
Compound: Cc1cc(OCCCc2c3n(c4c(-c5c(C)nn(C)c5C)c(Cl)ccc24)[C@H](C)CN(c2cccc4cc(C(=O)O)n(C)c24)C3=O)cc(C)c1Cl

- AUC/dose [3]: 2510 nM·h/mg/kg
Compound: COc1c(OC[C@H]2CCCO2)cc(N2C[C@@H](C)n3c(c(CCCOc4cc(C)c(Cl)c(C)c4)c4ccc(Cl)c(-c5c(C)nc(C)nc5C)c43)C2=O)c2c1cc(C(=O)O)n2C

- QH [5]: 50%
- AUC/dose [1]: 334 nM·h/mg/kg
Compound: COCCOc1cc(N2C[C@@H](C)n3c(c(CCCOc4cc(C)c(Cl)c(C)c4)c4ccc(Cl)c(-c5c(C)nc(C)nc5C)c43)C2=O)c2c(cc(C(=O)O)n2C)c1OC

- AUC/dose [3]: 2460 nM·h/mg/kg
Compound: CCOc1c(O[C@H]2CCOC2)cc(N2C[C@@H](C)n3c(c(CCCOc4cc(C)c(Cl)c(C)c4)c4ccc(Cl)c(-c5c(C)nc(C)nc5C)c43)C2=O)c2c1cc(C(=O)O)n2C

- AUC/dose [3]: 2830 nM·h/mg/kg
Compound: COc1c(OCC2CCOCC2)cc(N2C[C@@H](C)n3c(c(CCCOc4cc(C)c(Cl)c(C)c4)c4ccc(Cl)c(-c5c(C)ncnc5C)c43)C2=O)c2c1cc(C(=O)O)n2C

- AUC/dose [3]: 4930 nM·h/mg/kg
Compound: CCOc1c(OCC2CCOCC2)cc(N2C[C@@H](C)n3c(c(CCCOc4cc(C)c(Cl)c(C)c4)c4ccc(Cl)c(-c5c(C)nc(C)nc5C)c43)C2=O)c2c1cc(C(=O)O)n2C

- GI50 (K562): > 12000 nM
- GI50 (NCI-H929 [6]): 26 nM
- AUC/dose [3]: 1420 nM·h/mg/kg
Compound: COc1c(O[C@@H]2CCOC2)cc(N2C[C@@H](C)n3c(c(CCCOc4cc(C)c(Cl)c(C)c4)c4ccc(Cl)c(-c5c(C)nc(C)nc5C)c43)C2=O)c2c1cc(C(=O)O)n2C

- QH [7]: 17%
- fraction unbound [9]: 0.002
- TDI (Cytochrome P450 3A4 [10]): 67%
- AUC at 504 h [12]: 0.382 µM·h
- IC50 (Cytochrome P450 2C8): 2100 nM
- AUC/dose [1]: 9000 nM·h/mg/kg
- IC50 (Cytochrome P450 3A4 [19]): 1800 nM
Compound: COc1c(OCC2CCOCC2)cc(N2C[C@@H](C)n3c(c(CCCOc4cc(C)c(Cl)c(C)c4)c4ccc(Cl)c(-c5c(C)nc(C)nc5C)c43)C2=O)c2c1cc(C(=O)O)n2C
- Activity (NCI-H1048 [8]): Active
- Activity (NCI-H929 [11]): Tde
- Activity (NCI-H929 [13]): Active
- Activity [14]: Non-Toxic
- Activity [15]: Non-Toxic
- Activity [16]: Non-Toxic
- Activity [17]: Non-Toxic
- Activity (A-427 [18]): Active
- Activity [20]: Non-Toxic

- AUC/dose [1]: 380 nM·h/mg/kg
Compound: COCCOc1cc(N2C[C@@H](C)n3c(c(CCCOc4cc(C)c(Cl)c(C)c4)c4ccc(Cl)c(-c5c(C)ncnc5C)c43)C2=O)c2c(cc(C(=O)O)n2C)c1OC

Compound: CC[C@@]1(O)C(=O)OCc2c1cc1n(c2=O)Cc2cc3c(CN(C)C)c(O)ccc3nc2-1 [TOPOTECAN]
- inhibition in vivo at 60 mg/kg (NCI-H1048 [21]): 108%

- GI50 (K562): 8000 nM
- GI50 (NCI-H929 [6]): 22 nM
- QH [2]: 38%
- AUC/dose [22]: 1860 nM·h/mg/kg
Compound: COc1c(O[C@H]2CCOC2)cc(N2C[C@@H](C)n3c(c(CCCOc4cc(C)c(Cl)c(C)c4)c4ccc(Cl)c(-c5c(C)nc(C)nc5C)c43)C2=O)c2c1cc(C(=O)O)n2C

- AUC at 504 h [25]: 0.0234 µM·h
Compound: CC(=O)O[C@@]12CO[C@@H]1C[C@H](O)[C@@]1(C)C(=O)[C@H](O)C3=C(C)[C@@H](OC(=O)[C@H](O)[C@@H](NC(=O)OC(C)(C)C)c4ccccc4)C[C@@](O)([C@@H](OC(=O)c4ccccc4)[C@H]21)C3(C)C [DOCETAXEL ANHYDROUS]
- Activity [23]: Non-Toxic
- Activity (A-427 [24]): Active
- Activity (A-427 [26]): Active
- Activity [27]: Non-Toxic
